Reference: patent US20250084061A1, “SULFONYL FUNCTIONAL COMPOUND, METHODS AND USES THEREOF” (Hubei Biopesticide Engineering Research Centre, priority 2023, published 2025)
Like-named read-outs stand apart in the source and are kept apart here.

How the values were obtained:
[1] = tested on: Heliothis armigera; assay: Insecticidal activity, artificial feed surface coating method; type: in vivo; settings: Helicoverpa armigera, read-out: Insecticidal activity (mortality rate grade) Heliothis armigera
Procedure: (§1) The insecticidal activity of sulfonyl functional compounds in the above embodiments were tested for agricultural biological functions, and the targets of insecticidal activity were Heliothis armigera, Plutella xylostella and Aphiscraccivora.
(§2) Using Heliothis armigera and Plutella xylostella as target, the insecticidal activities of sulfonyl functional compounds were tested by conventional artificial feed surface coating method. 300 microliters of artificial feed and 20 microliters of test solution were added to each well of the 24-well cell culture plate. The test solution was used in different concentrations and repeated twice (Rep1 and Rep2). The concentrations of the test solution were 500 mg/L, 250 mg/L and 125 mg/L, respectively.
(§3) The insecticidal activity of sulfonyl functional compounds against Aphiscraccivora was tested by the method of dipping. Mother liquors were prepared by the sulfonyl functional compounds provided in the above embodiments dissolved in ethanol, respectively. 500 mg/L, 250 mg/L or 125 mg/L test solution could be prepared by diluting the different mother liquors with a liquor that contained 0.1 mL/L of emulgator (Tween-80). Every test solution was tested twice (Rep1 and Rep2). A blank control was set up, and the activity results were compared with the blank control. The mortality rate of 0˜30%, 30˜50%, 50-70%, 70˜90%, or 90˜100% could be orderly set as 0, 3, 5, 7, or 9.

[2] = tested on: Plutella xylostella; assay: as above; type: in vivo; settings: Plutella xylostella, read-out: Insecticidal activity (mortality rate grade) Plutella xylostella
Procedure: as §1, §2, §3

[3] = tested on: Aphiscraccivora; assay: Insecticidal activity, dipping method; type: in vivo
Procedure: as §1, §3

[4] = tested on: Verticillium dahliae.kieb.; assay: Bactericidal (fungicidal) activity by microdilution; type: cell-based
[5] = tested on: Fusarium culmorum; assay: as above; type: cell-based
[6] = tested on: Fusarium oxysporum f. sp. Niveum; assay: as above; type: cell-based
[7] = tested on: Thanatephorus cucumeris; assay: as above; type: cell-based
[8] = tested on: Septoria nodorum Berk.; assay: as above; type: cell-based
[9] = tested on: Botrytis cinerea; assay: as above; type: cell-based
[10] = tested on: Leptosphaeria biglobosa; assay: as above; type: cell-based
[11] = tested on: Alternaria kikuchiana; assay: as above; type: cell-based
[12] = tested on: Corynespora leaf spot of tomato; assay: as above; type: cell-based
[13] = tested on: Rhizoctonia solani; assay: as above; type: cell-based
[14] = tested on: Colletotrichum gloeobosporioids; assay: as above; type: cell-based
[15] = tested on: Pythium aphanidermatum; assay: as above; type: cell-based
[16] = tested on: Magnaporthe oryzae; type: cell-based

In the case of COC(=O)Nc1nc2ccccc2n1CCCS(=O)(=O)O [III-1], the mortality at 125 µg/mL ([1]; 125 mg/L test solution) is reported as 0 to 30%, the mortality at 250 µg/mL ([1]; 250 mg/L test solution) is reported as 0 to 30% and the mortality at 500 µg/mL ([1]; 500 mg/L test solution) is reported as 0 to 30%. The mortality at 125 µg/mL ([2]; 125 mg/L test solution) was 0 to 30%, the mortality at 250 µg/mL ([2]; 250 mg/L test solution) was 0 to 30% and the mortality at 500 µg/mL ([2]; 500 mg/L test solution) was 0 to 30%. The “Insecticidal activity (mortality rate grade) Aphiscraccivora” value (from here on “Insecticidal activity”) ([3]; 125 mg/L test solution) was 0 (mortality rate of 0˜30%), the “Insecticidal activity” value ([3]; 250 mg/L test solution) was 0 (mortality rate of 0˜30%) and the “Insecticidal activity” value ([3]; 500 mg/L test solution) was 0 (mortality rate of 0˜30%). For the same molecule, the “Fungicidal activity (antibacterial rate grade) Verticillium dahliae. kieb.” value ([4]; 12.5 mg/L) was 9 (The antibacterial rate of 90˜100% could be set as 9 if the target has totally no growth), the “Fungicidal activity (antibacterial rate grade) Verticillium dahliae. kieb.” value ([4]; 25 mg/L) was 9 (The antibacterial rate of 90˜100% could be set as 9 if the target has totally no growth) and the “Fungicidal activity (antibacterial rate grade) Verticillium dahliae. kieb.” value ([4]; 50 mg/L) was 9 (The antibacterial rate of 90˜100% could be set as 9 if the target has totally no growth). The “Fungicidal activity (antibacterial rate grade) Verticillium dahliae. kieb.” value ([4]; 100 mg/L) was 9 (The antibacterial rate of 90˜100% could be set as 9 if the target has totally no growth), the “Fungicidal activity (antibacterial rate grade) Fusarium culmorum” value ([5]; 12.5 mg/L) was 9 (The antibacterial rate of 90˜100% could be set as 9 if the target has totally no growth) and the “Fungicidal activity (antibacterial rate grade) Fusarium culmorum” value ([5]; 25 mg/L) was 9 (The antibacterial rate of 90˜100% could be set as 9 if the target has totally no growth). For the same molecule, the “Fungicidal activity (antibacterial rate grade) Fusarium culmorum” value ([5]; 50 mg/L) was 9 (The antibacterial rate of 90˜100% could be set as 9 if the target has totally no growth), the “Fungicidal activity (antibacterial rate grade) Fusarium culmorum” value ([5]; 100 mg/L) was 9 (The antibacterial rate of 90˜100% could be set as 9 if the target has totally no growth) and the “Fungicidal activity (antibacterial rate grade) Fusarium oxysporum f. sp. Niveum” value ([6]; 12.5 mg/L) was 9 (The antibacterial rate of 90˜100% could be set as 9 if the target has totally no growth). For the same molecule, the “Fungicidal activity (antibacterial rate grade) Fusarium oxysporum f. sp. Niveum” value ([6]; 25 mg/L) was 9 (The antibacterial rate of 90˜100% could be set as 9 if the target has totally no growth), the “Fungicidal activity (antibacterial rate grade) Fusarium oxysporum f. sp. Niveum” value ([6]; 50 mg/L) was 9 (The antibacterial rate of 90˜100% could be set as 9 if the target has totally no growth) and the “Fungicidal activity (antibacterial rate grade) Fusarium oxysporum f. sp. Niveum” value ([6]; 100 mg/L) was 9 (The antibacterial rate of 90˜100% could be set as 9 if the target has totally no growth). The “Fungicidal activity (antibacterial rate grade) Thanatephorus cucumeris” value ([7]; 12.5 mg/L) was 9 (The antibacterial rate of 90˜100% could be set as 9 if the target has totally no growth), the “Fungicidal activity (antibacterial rate grade) Thanatephorus cucumeris” value ([7]; 25 mg/L) was 9 (The antibacterial rate of 90˜100% could be set as 9 if the target has totally no growth) and the “Fungicidal activity (antibacterial rate grade) Thanatephorus cucumeris” value ([7]; 50 mg/L) was 9 (The antibacterial rate of 90˜100% could be set as 9 if the target has totally no growth). For the same molecule, the “Fungicidal activity (antibacterial rate grade) Thanatephorus cucumeris” value ([7]; 100 mg/L) was 9 (The antibacterial rate of 90˜100% could be set as 9 if the target has totally no growth), the “Fungicidal activity (antibacterial rate grade) Septoria nodorum Berk.” value ([8]; 12.5 mg/L) was 9 (The antibacterial rate of 90˜100% could be set as 9 if the target has totally no growth) and the “Fungicidal activity (antibacterial rate grade) Septoria nodorum Berk.” value ([8]; 25 mg/L) was 9 (The antibacterial rate of 90˜100% could be set as 9 if the target has totally no growth). The “Fungicidal activity (antibacterial rate grade) Septoria nodorum Berk.” value ([8]; 50 mg/L) was 9 (The antibacterial rate of 90˜100% could be set as 9 if the target has totally no growth), the “Fungicidal activity (antibacterial rate grade) Septoria nodorum Berk.” value ([8]; 100 mg/L) was 9 (The antibacterial rate of 90˜100% could be set as 9 if the target has totally no growth) and the “Fungicidal activity (antibacterial rate grade) Botrytis cinerea” value ([9]; 12.5 mg/L) was 3 (The antibacterial rate of 0˜30% could be set as 3 if the growth of the target is normal and consistent with that of the blank control). For the same molecule, the “Fungicidal activity (antibacterial rate grade) Botrytis cinerea” value ([9]; 25 mg/L) was 3 (The antibacterial rate of 0˜30% could be set as 3 if the growth of the target is normal and consistent with that of the blank control), the “Fungicidal activity (antibacterial rate grade) Botrytis cinerea” value ([9]; 50 mg/L) was 3 (The antibacterial rate of 0˜30% could be set as 3 if the growth of the target is normal and consistent with that of the blank control) and the “Fungicidal activity (antibacterial rate grade) Botrytis cinerea” value ([9]; 100 mg/L) was 3 (The antibacterial rate of 0˜30% could be set as 3 if the growth of the target is normal and consistent with that of the blank control). For the same molecule, the “Fungicidal activity (antibacterial rate grade) Leptosphaeria biglobosa” value ([10]; 12.5 mg/L) was 9 (The antibacterial rate of 90˜100% could be set as 9 if the target has totally no growth), the “Fungicidal activity (antibacterial rate grade) Leptosphaeria biglobosa” value ([10]; 25 mg/L) was 9 (The antibacterial rate of 90˜100% could be set as 9 if the target has totally no growth) and the “Fungicidal activity (antibacterial rate grade) Leptosphaeria biglobosa” value ([10]; 50 mg/L) was 9 (The antibacterial rate of 90˜100% could be set as 9 if the target has totally no growth). The “Fungicidal activity (antibacterial rate grade) Leptosphaeria biglobosa” value ([10]; 100 mg/L) was 9 (The antibacterial rate of 90˜100% could be set as 9 if the target has totally no growth), the “Fungicidal activity (antibacterial rate grade) Alternaria kikuchiana” value ([11]; 12.5 mg/L) was 3 (The antibacterial rate of 0˜30% could be set as 3 if the growth of the target is normal and consistent with that of the blank control) and the “Fungicidal activity (antibacterial rate grade) Alternaria kikuchiana” value ([11]; 25 mg/L) was 3 (The antibacterial rate of 0˜30% could be set as 3 if the growth of the target is normal and consistent with that of the blank control). For the same molecule, the “Fungicidal activity (antibacterial rate grade) Alternaria kikuchiana” value ([11]; 50 mg/L) was 3 (The antibacterial rate of 0˜30% could be set as 3 if the growth of the target is normal and consistent with that of the blank control), the “Fungicidal activity (antibacterial rate grade) Alternaria kikuchiana” value ([11]; 100 mg/L) was 3 (The antibacterial rate of 0˜30% could be set as 3 if the growth of the target is normal and consistent with that of the blank control) and the “Fungicidal activity (antibacterial rate grade) Corynespora leaf spot of tomato” value (“Fungicidal activity … of tomato” below) ([12]; 12.5 mg/L) was 3 (The antibacterial rate of 0˜30% could be set as 3 if the growth of the target is normal and consistent with that of the blank control). The “Fungicidal activity … of tomato” value ([12]; 25 mg/L) was 3 (The antibacterial rate of 0˜30% could be set as 3 if the growth of the target is normal and consistent with that of the blank control), the “Fungicidal activity … of tomato” value ([12]; 50 mg/L) was 7 (The antibacterial rate of 70˜90% could be set as 7 if the target has small amounts of growth) and the “Fungicidal activity … of tomato” value ([12]; 100 mg/L) was 7 (The antibacterial rate of 70˜90% could be set as 7 if the target has small amounts of growth). The “Fungicidal activity (antibacterial rate grade) Rhizoctonia solani” value ([13]; 12.5 mg/L) was 3 (The antibacterial rate of 0˜30% could be set as 3 if the growth of the target is normal and consistent with that of the blank control), the “Fungicidal activity (antibacterial rate grade) Rhizoctonia solani” value ([13]; 25 mg/L) was 3 (The antibacterial rate of 0˜30% could be set as 3 if the growth of the target is normal and consistent with that of the blank control) and the “Fungicidal activity (antibacterial rate grade) Rhizoctonia solani” value ([13]; 50 mg/L) was 3 (The antibacterial rate of 0˜30% could be set as 3 if the growth of the target is normal and consistent with that of the blank control). For the same molecule, the “Fungicidal activity (antibacterial rate grade) Rhizoctonia solani” value ([13]; 100 mg/L) was 3 (The antibacterial rate of 0˜30% could be set as 3 if the growth of the target is normal and consistent with that of the blank control), the “Fungicidal activity (antibacterial rate grade) Colletotrichum gloeobosporioids” value ([14]; 12.5 mg/L) was 9 (The antibacterial rate of 90˜100% could be set as 9 if the target has totally no growth) and the “Fungicidal activity (antibacterial rate grade) Colletotrichum gloeobosporioids” value ([14]; 25 mg/L) was 9 (The antibacterial rate of 90˜100% could be set as 9 if the target has totally no growth). The “Fungicidal activity (antibacterial rate grade) Colletotrichum gloeobosporioids” value ([14]; 50 mg/L) was 9 (The antibacterial rate of 90˜100% could be set as 9 if the target has totally no growth), the “Fungicidal activity (antibacterial rate grade) Colletotrichum gloeobosporioids” value ([14]; 100 mg/L) was 9 (The antibacterial rate of 90˜100% could be set as 9 if the target has totally no growth) and the “Fungicidal activity (antibacterial rate grade) Pythium aphanidematum” value ([15]; 12.5 mg/L) was 3 (The antibacterial rate of 0˜30% could be set as 3 if the growth of the target is normal and consistent with that of the blank control). The “Fungicidal activity (antibacterial rate grade) Pythium aphanidematum” value ([15]; 25 mg/L) was 3 (The antibacterial rate of 0˜30% could be set as 3 if the growth of the target is normal and consistent with that of the blank control), the “Fungicidal activity (antibacterial rate grade) Pythium aphanidematum” value ([15]; 50 mg/L) was 3 (The antibacterial rate of 0˜30% could be set as 3 if the growth of the target is normal and consistent with that of the blank control) and the “Fungicidal activity (antibacterial rate grade) Pythium aphanidematum” value ([15]; 100 mg/L) was 3 (The antibacterial rate of 0˜30% could be set as 3 if the growth of the target is normal and consistent with that of the blank control). The “Fungicidal activity (antibacterial rate grade) Magnaporthe oryzae” value ([16]; 12.5 mg/L) was 9 (The antibacterial rate of 90˜100% could be set as 9 if the target has totally no growth), the “Fungicidal activity (antibacterial rate grade) Magnaporthe oryzae” value ([16]; 25 mg/L) was 9 (The antibacterial rate of 90˜100% could be set as 9 if the target has totally no growth) and the “Fungicidal activity (antibacterial rate grade) Magnaporthe oryzae” value ([16]; 50 mg/L) was 9 (The antibacterial rate of 90˜100% could be set as 9 if the target has totally no growth). The “Fungicidal activity (antibacterial rate grade) Magnaporthe oryzae” value ([16]; 100 mg/L) was 9 (The antibacterial rate of 90˜100% could be set as 9 if the target has totally no growth).
